# Assay results as given in publication PMC8621172, “Manipulating Estrogenic/Anti-Estrogenic Activity of Triphenylethylenes towards Development of Novel Anti-Neoplastic SERMs” (International Journal of Molecular Sciences, 2021).
# Entries after “also recorded” stand apart in the source; their conditions may differ.
# Legend:
# [1] = system: Ishikawa endometrial adenocarcinoma cell line; test: Alkaline phosphatase (AlkP) activity in Ishikawa cells; assay type: cell-based, human; conditions: for Relative alkaline phosphatase activity: 72 h, DMSO set to 1; for effect on AlkP activity (in words): 72 h treatment, 5-dose assay 1 nM to 10 µM
# Experimental: Alkaline phosphatase (AlkP) activity in these human endometrial cancer cells is markedly stimulated by estrogens.
# Because of the potential SERM character of the compounds tested, their estrogenic effects were studied in an endometrial-derived cell culture model, the human endometrial adenocarcinoma cell line Ishikawa. […] All compounds were screened at two concentrations, 0.1 and 1 µM. Its agonistic effect was compared to the vehicle control DMSO (data shown in Supplementary Materials). […] The four compounds were studied in a concentration range of 1 nM to 10 µM.
# Estrogens stimulate the activity of alkaline phosphatase (AlkP) in Ishikawa cells (human endometrial adenocarcinoma cells; kindly provided by Prof. Masato Nishida, National Hospital Organization, Kasumigaura Medical Center, Japan). This enzyme activity is estimated by using the chromogen substrate (4-nitrophenylphosphate). […] The procedure was modified by Littlefield et al., 1990 [42].
# After 72 h incubation, cells were harvested, washed twice with PBS, and incubated at −80 °C for about 30 min to lyse the cells. After thawing, the lysates were resuspended in reaction buffer (274 mM mannitol, 100 mM CAPS, 4 mM MgCl2, pH 10.4) containing 4 mM p-nitrophenylphosphate (NPP). After incubation for 1 h in the dark, AlkP activity was assayed by using the hydrolysis of p-nitrophenylphosphate to p-nitrophenol at pH 10.4 and the spectrometric determination of the kinetic of the product formation at 405 nm. All compounds were tested in technical triplicates and biological triplicates. Statistical analysis was performed by analysis of variance (ANOVA) and Tukey’s post-hoc test with the significance level of p < 0.05.
# ovariectomized rats = test: Uterotrophic assay in ovariectomized rats; assay type: in vivo, rat
# Excerpt: Compounds showing appreciable estrogenic activity in the YES assay and that were able to inhibit the growth of MCF-7 cancer cell lines yet with low estrogenic activity on Ishikawa endometrial adenocarcinoma cells might serve as potential ideal SERMS. Compounds 12 and 19 were therefore selected for the in vivo experiments to assess their estrogenic properties in an uterotrophic assay in an ovariectomized rat model. The in vivo uterotrophic rat assay is the gold standard assay to test for the estrogenic effect of compounds; the assay uses adult ovariectomized (OVX) female rats where there is no significant source of endogenous estrogens. Compounds that have estrogenic effects cause uterotrophic response due to the imbibition of water and growth of the uterine cells. Statistically significant uterine weight increases compared to controls provide a positive result. Adopting both in vivo and in vitro assays was inevitable due to the limitations of each assay. The cell lines are not properly able to recapitulate the in vivo environment of the uterus within the body. On the other hand, the rat uterotrophic assay merely considers the uterine weight gain as an endpoint of estrogenicity without taking into account all factors that play a role in exerting an estrogenic effect on the organ and body.
# The most common short-term in vivo assay for estrogenicity/anti-estrogenicity is the uterotrophic assay, suitable for screening ERα agonists and antagonists. The primary endpoint is the uterine wet weight (UWW). An increase in UWW indicates an estrogenic activity of the test compound. Compounds 12 and 19 were screened using the in vivo uterotrophic assay.
# The most common short-term in vivo assay for (anti)-estrogenicity is the uterine growth test, suitable for screening ERα agonists and antagonists. The primary endpoint is the uterine wet weight (UWW). An increase in UWW indicates an estrogenic activity of the test compound [43]. Sprague Dawley female rats (170–200 g) were obtained from the animal colony of the National Institute of Research (Cairo, Egypt). The rats were housed in a temperature-controlled room (23–24 °C) with a 12 h light:dark cycle and with free access to food and water. They were allowed to acclimatize to the animal house of the German University in Cairo for at least 1 week before initiating the experiments. All efforts were made to minimize animal discomfort and suffering. Animals were ovariectomized. After 14 days of endogenous hormonal decline, the animals were subcutaneously treated for three days with respective compounds. The animals were randomly allocated to treatment and vehicle groups (n = 6). […] The uterus wet weight was determined.
smiles,measurement,setting,value
"COc1ccc(C(C)=C(c2ccc(O)cc2)c2ccc(Cl)cc2)cc1F [Compound 3, E/Z-4-[1-(4-Chlorophenyl)-2-(3-fluoro-4-methoxyphenyl)propenyl]-phenol]",Relative alkaline phosphatase activity,[1]; 1 µM,1.13 ± 0.43
"COc1cc(C(C)=C(c2ccc(O)cc2)c2ccc(Cl)cc2)ccc1F [Compound 4, E/Z-4-[1-(4-Chlorophenyl)-2-(4-fluoro-3-methoxyphenyl)propenyl]-phenol]",Relative alkaline phosphatase activity,[1]; 1 µM,1.10 ± 0.39
"CC(=C(c1ccc(Cl)cc1)c1ccc(OCCCN(C)C)cc1)c1ccccc1 [Compound 5, E/Z-(3-{4-[1-(4-Chloro-phenyl)-2-phenyl-propenyl]-phenoxy}-propyl)-dimethyl-amine]",Relative alkaline phosphatase activity,[1]; 1 nM,0.93 ± 0.64
same,Relative alkaline phosphatase activity,[1]; 10 nM,0.95 ± 0.37
same,Relative alkaline phosphatase activity,[1]; 100 nM,1.05 ± 0.30
same,Relative alkaline phosphatase activity,[1]; 1 µM,1.08 ± 0.33
same,Relative alkaline phosphatase activity,[1]; 10 µM,0.21 ± 0.16
same,effect on AlkP activity (in words),[1],No significant effects
"CC(=C(c1ccc(Cl)cc1)c1ccc(OCCN2CCCC2)cc1)c1ccccc1 [Compound 6, E/Z-1-(2-{4-[1-(4-Chloro-phenyl)-2-phenyl-propenyl]-phenoxy}-ethyl)-pyrrolidine]",Relative alkaline phosphatase activity,[1]; 1 µM,2.55 ± 1.35
"CC(=C(c1ccc(Cl)cc1)c1ccc(OCCN2CCCCC2)cc1)c1ccccc1 [Compound 7, E/Z-1-(2-{4-[1-(4-Chloro-phenyl)-2-phenyl-propenyl]-phenoxy}-ethyl)-piperidine]",Relative alkaline phosphatase activity,[1]; 1 µM,2.55 ± 1.80
"CC(=C(c1ccc(Cl)cc1)c1ccc(OCCN2CCOCC2)cc1)c1ccccc1 [Compound 8, E/Z-4-(2-{4-[1-(4-Chloro-phenyl)-2-phenyl-propenyl]-phenoxy}-ethyl)-morpholine]",Relative alkaline phosphatase activity,[1]; 1 µM,1.16 ± 0.15
"CC(=C(c1ccc(Cl)cc1)c1ccc(OCCN2CCCCCC2)cc1)c1ccccc1 [Compound 9, E/Z-1-(2-{4-[1-(4-Chloro-phenyl)-2-phenyl-propenyl]-phenoxy}-ethyl)-azepane]",Relative alkaline phosphatase activity,[1]; 1 µM,2.94 ± 1.29
"COc1ccc(C(C)=C(c2ccc(Cl)cc2)c2ccc(OCCCN(C)C)cc2)cc1 [Compound 10, E/Z-(3-{4-[1-(4-Chloro-phenyl)-2-(4-methoxy-phenyl)-propenyl]-phenoxy}-propyl)-dimethyl-amine]",Relative alkaline phosphatase activity,[1]; 1 µM,2.55 ± 1.80
"COc1ccc(C(C)=C(c2ccc(Cl)cc2)c2ccc(OCCN3CCCC3)cc2)cc1 [Compound 11, E/Z-1-(2-{4-[1-(4-Chloro-phenyl)-2-(4-methoxy-phenyl)-propenyl]-phenoxy}-ethyl)-pyrrolidine]",Relative alkaline phosphatase activity,[1]; 1 nM,1.25 ± 0.61
same,Relative alkaline phosphatase activity,[1]; 10 nM,1.13 ± 0.31
same,Relative alkaline phosphatase activity,[1]; 100 nM,1.75 ± 0.50
same,Relative alkaline phosphatase activity,[1]; 10 µM,1.36 ± 0.38
same,effect on AlkP activity (in words),[1],increase the AlkP activity in a dose-pendent manner
"COc1ccc(C(C)=C(c2ccc(Cl)cc2)c2ccc(OCCN3CCCCC3)cc2)cc1 [Compound 12, E/Z-1-(2-{4-[1-(4-Chloro-phenyl)-2-(4-methoxy-phenyl)-propenyl]-phenoxy}-ethyl)-piperidine]",Relative alkaline phosphatase activity,[1]; 1 nM,0.95 ± 0.02
same,Relative alkaline phosphatase activity,[1]; 10 nM,0.96 ± 0.01
same,Relative alkaline phosphatase activity,[1]; 100 nM,1.14 ± 0.01
same,Relative alkaline phosphatase activity,[1]; 10 µM,0.42 ± 0.13
same,effect on AlkP activity (in words),[1],increase the AlkP activity in a dose-pendent manner
same,uterotrophic effect (in words),ovariectomized rats; compared to TAM,no uterotrophic effect; also recorded: less increase in UWW
same,Relative uterus wet weight,ovariectomized rats; s.c. 10 mg/kg/d BW for three days,1.23 ± 0.18 g/kg BW
"COc1ccc(C(C)=C(c2ccc(Cl)cc2)c2ccc(OCCN3CCOCC3)cc2)cc1 [Compound 13, E/Z-4-(2-{4-[1-(4-Chloro-phenyl)-2-(4-methoxy-phenyl)-propenyl]-phenoxy}-ethyl)-morpholine]",Relative alkaline phosphatase activity,[1]; 1 µM,3.74 ± 2.05
"COc1ccc(C(C)=C(c2ccc(Cl)cc2)c2ccc(OCCN3CCCCCC3)cc2)cc1 [Compound 14, E/Z-1-(2-{4-[1-(4-Chloro-phenyl)-2-(4-methoxy-phenyl)-propenyl]-phenoxy}-ethyl)-azepane]",Relative alkaline phosphatase activity,[1]; 1 µM,6.58 ± 2.24
"COc1ccc(C(C)=C(c2ccc(Cl)cc2)c2ccc(OCCCN(C)C)cc2)cc1F [Compound 15, E/Z-(3-{4-[1-(4-Chlorophenyl)-2-(3-fluoro-4-methoxyphenyl)-propenyl]-phenoxy}-propyl)-dimethyl-amine]",Relative alkaline phosphatase activity,[1]; 1 µM,0.86 ± 0.12
"COc1ccc(C(C)=C(c2ccc(Cl)cc2)c2ccc(OCCN3CCCC3)cc2)cc1F [Compound 16, E/Z-1-(2-{4-[1-(4-Chlorophenyl)-2-(3-fluoro-4-methoxyphenyl)-propenyl]-phenoxy}-ethyl)-pyrrolidine]",Relative alkaline phosphatase activity,[1]; 1 µM,0.98 ± 0.53
"COc1ccc(C(C)=C(c2ccc(Cl)cc2)c2ccc(OCCN3CCOCC3)cc2)cc1F [Compound 18, E/Z-4-(2-{4-[1-(4-Chlorophenyl)-2-(3-fluoro-4-methoxyphenyl)-propenyl]-phenoxy}-ethyl)-morpholine]",Relative alkaline phosphatase activity,[1]; 1 µM,1.01 ± 0.24
"COc1ccc(C(C)=C(c2ccc(Cl)cc2)c2ccc(OCCN(C)C)cc2)cc1F [Compound 20, E/Z-(2-{4-[1-(4-Chlorophenyl)-2-(3-fluoro-4-methoxyphenyl)-propenyl]-phenoxy}-ethyl)-dimethyl-amine]",Relative alkaline phosphatase activity,[1]; 1 µM,1.12 ± 0.46
"CCN(CC)CCOc1ccc(C(=C(C)c2ccc(OC)c(F)c2)c2ccc(Cl)cc2)cc1 [Compound 21, E/Z-(2-{4-[1-(4-Chlorophenyl)-2-(3-fluoro-4-methoxyphenyl)-propenyl]-phenoxy}-ethyl)-diethyl-amine]",Relative alkaline phosphatase activity,[1]; 1 µM,0.90 ± 0.13
